Experimental findings from publication PMC8157947, “Peptidic boronic acids are potent cell-permeable inhibitors of the malaria parasite egress serine protease SUB1” (Proceedings of the National Academy of Sciences of the …, 2021) are described below.

The assay has as its target T1, α-chymotrypsin (Bos taurus, UniProt P00766).
T1 construct: purchased Sigma-Aldrich C3142; host or cells: bovine pancreas
Nature of the assay: α-Chymotrypsin inhibition assay (N-Suc-LLVY-AMC cleavage). Type of assay: biochemical. The settings on record: bovine. Here is the method:
Analytical data are in accor dance with those reported in the literature12.
(+)-Pinanediol (1- am inobenzyl)boronate h ydrochloride 9g
A previousl y reported m ethod was used for the first step of the s ynthesis3.
Phenylm agnesium brom ide 0.7 M (3.1 m L, 2.15 mm ol, 1.2 equiv) was added dropwise at −78°C to a solution of (+)-pinanediol dichloromethyl boronate 24 (470 m g, 1.79 mmol, 1.0 equiv) in anh ydrous dieth yl ether (10 m L). Af ter 15 m in ZnCl2 1 M (1.8 m L, 1.8 mm ol, 1.0 equiv) was slowl y added at this t em perature. T he reaction m ixture was allowed to warm up to room tem perature over 2 hours. The inorganic precipitate was filtered off and the solvents were rem oved in vacuo. The residue was dissolved in pentane, washed with water and dried over Na2SO4. Rem oval of the solvent gives a product which was forwarded to the next step without purification. […]
Assays f or inh ib ition of tr yp s in activity (T PC K trea ted, f rom bovine pa ncreas; Sigm a-Aldrich T 1426) were based on cleavage of the fluorogenic peptide substrate Boc -QAR-AMC (Sigma- Aldrich B4153). which contains the fluorescent 7- am ino-4-m ethyl c oum arin (AMC) group. […] Cleavage of this bond results in release of AMC and i ncreased fluorescence. […]

What is called IC50 is the concentration that gives 50% inhibition. Read a high IC50 as a need for much substance. `CC(=O)NC(C(=O)NC(C(=O)NCC(=O)NC(C)B(O)O)C(C)C)C1CCCC1` (stereo not shown) [3j] showed an IC50 of more than 200 µM.
